Results published in ChEMBL document CHEMBL4699551, “Bromotryptamine and Imidazole Alkaloids with Anti-inflammatory Activity from the Bryozoan Flustra foliacea” (J Nat Prod, 2020).
Calls of active or inactive are those of the source. The calls are words filed in the database; no cut-off is given here.

How the values were obtained:
Dendritic cell [1] = assay: Antiinflammatory activity in human monocytes-derived dendritic cells assessed as increase in IL-10 secretion at 10 ug/ml after 24 hrs by ELISA method relative to control; type: functional
Dendritic cell [2] = assay: Antiinflammatory activity in human monocytes-derived dendritic cells assessed as decrease in IL-12p40 secretion at 10 ug/ml after 24 hrs by ELISA method relative to control; type: functional
Dendritic cell [3] = assay: Antiinflammatory activity in human monocytes-derived dendritic cells assessed as decrease in IL-12p40 secretion after 24 hrs by ELISA method relative to control; type: functional, cell-based
Dendritic cell [4] = assay: Cytotoxicity against human monocytes-derived dendritic cells assessed as reduction in cell viability after 10 ug/ml after 24 hrs by trypan blue staining based assay; settings: dose 10 µg/ml

Row | Compound | Activity (Dendritic cell [1]; dose 10.0 µg/ml) | Activity (Dendritic cell [2]; dose 10.0 µg/ml) | Activity (Dendritic cell [4]) | Activity (Dendritic cell [2]; dose 10 µg/ml) [%] | also measured
1 | CC(C)=CC[C@@]12CCN(C)[C@@H]1Nc1cc(Br)ccc12 | inactive | inactive |  |  | 
2 | C=CC(C)(C)[C@@]12CCN(C)[C@@H]1N(C(OC)C(O)C(C)(C)O)c1cc(Br)ccc12 (some centres not stated) | inactive | inactive |  |  | 
3 | CC(C)=CC[C@@]12CCN(C)[C@@H]1N(CC(O)C(C)(C)O)c1cc(Br)ccc12 (some centres not stated) | inactive | inactive |  |  | 
4 | CNCCc1cn(CC=C(C)C)c2cc(Br)ccc12.O=C(O)C(F)(F)F |  |  | Non-Toxic | 45 | IC50 (Dendritic cell [3]): 2900 nM
5 | C=CC(C)(C)[C@@]12CCN(C)[C@@H]1N(CC=C(C)C)c1cc(Br)ccc12 | inactive | inactive |  |  | 
6 | C/C(=C\C(=O)NCCc1c[nH]cn1)CCCC(C)(C)O |  |  |  |  | Activity (Dendritic cell [1]; dose 10 µg/ml): 19%
7 | C=CC(C)(C)[C@@]12CCN(C)[C@@H]1N(CC(O)C(C)(C)O)c1cc(Br)ccc12 (some centres not stated) | inactive | inactive |  |  | 
8 | C=CC(C)(C)C(=O)Nc1cc(Br)ccc1C(=O)O |  |  | Non-Toxic | 45 | 
9 | C=CC(C)(C)[C@@]12CCN[C@@H]1Nc1cc(Br)ccc12 | inactive | inactive |  |  | 
10 | CC1=C[C@H]2[C@@H]([C@@H](c3[nH]c4cc(Br)ccc4c3CCN(C)C)[C@]34CC[N+](C)(C)[C@]23Nc2cc(Br)ccc24)C(C)(C)C1 (relative stereo) |  |  |  |  | Activity (Dendritic cell [1]; dose 10 µg/ml): 19%
11 | C=CC(C)(C)c1c(CCNC)c2ccc(Br)cc2n1C.O=C(O)C(F)(F)F |  |  | Non-Toxic | 45 | 
12 | CO[C@H](c1[nH]c2cc(Br)ccc2c1CCN(C)C)[C@@H](O)C(C)(C)O |  |  | Non-Toxic | 45 | 
13 | CNCC[C@]1(O)C(=O)N(CC=C(C)C)c2cc(Br)ccc21 | inactive | inactive |  |  | 
14 | O=C(O)C(F)(F)F.O=Cc1c[nH]c2cc(Br)ccc12 |  |  | Non-Toxic | 45 | 
15 | C=CC(C)(C)c1[nH]c2cc(Br)ccc2c1CC[N+]1(C)CCOC1 (configuration not stated) |  |  | Non-Toxic | 45 | 
16 | CN(C)CCc1c[nH]c2cc(Br)ccc12.O=C(O)C(F)(F)F |  |  | Non-Toxic | 45 | 
17 | C=CC(C)(C)[C@@]12CCN(C)[C@@H]1N(C)c1cc(Br)ccc12 | inactive | inactive |  |  | 
18 | CC(C)=CC[C@@]12CCN(C)[C@@H]1N(C(O)C(O)C(C)(C)O)c1cc(Br)ccc12 (some centres not stated) | inactive | inactive |  |  | 
19 | C=CC(C)(C)[C@@]1(CCNC)C(=O)Nc2cc(Br)ccc21 | inactive | inactive |  |  | 
20 | CC(C)=CC[C@@]12CCN(C)[C@@H]1Nc1c(Br)ccc(O)c12 | inactive | inactive |  |  | 
21 | CC(C)C(=O)c1c(CCN(C)C)c2ccc(Br)cc2[nH]c1=O |  |  | Non-Toxic | 45 | 
22 | C=CC(C)(C)[C@@]12CCN(C)[C@@H]1N(C(O)C(O)C(C)(C)O)c1cc(Br)ccc12 (some centres not stated) | inactive | inactive |  |  | 
23 | CC(C)=CCN1c2cc(Br)ccc2[C@]2(CC=C(C)C)CCN(C)[C@H]12 | inactive | inactive |  |  | 
24 | C=CC(C)(C)[C@@]12CCN(C)C1=Nc1cc(Br)ccc12 | inactive | inactive |  |  | 
